From ChEMBL document CHEMBL1136181, “Differentially functionalized diamines as novel ligands for the NPY2 receptor” (Bioorg Med Chem Lett, 2003)

These compounds were tested against T1, Neuropeptide Y receptor type 2 (Homo sapiens, UniProt P49146) (assay: Binding affinity against SMS-KAN cell membranes endogenously expressing Neuropeptide Y receptor type 2 using [125I]PYY as radioligand).
T1 sequence (P49146 whole entry): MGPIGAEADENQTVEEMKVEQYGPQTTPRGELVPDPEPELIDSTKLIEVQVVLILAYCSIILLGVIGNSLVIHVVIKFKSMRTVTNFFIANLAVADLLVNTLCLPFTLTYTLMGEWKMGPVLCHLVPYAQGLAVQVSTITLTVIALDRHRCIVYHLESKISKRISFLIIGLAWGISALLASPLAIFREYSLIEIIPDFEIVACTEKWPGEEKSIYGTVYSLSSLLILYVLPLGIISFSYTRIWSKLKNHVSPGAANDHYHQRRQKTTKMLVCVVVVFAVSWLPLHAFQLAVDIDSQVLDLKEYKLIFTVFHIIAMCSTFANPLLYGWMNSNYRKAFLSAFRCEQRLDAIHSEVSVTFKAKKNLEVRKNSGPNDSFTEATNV

| IC50 [µM] | SMILES |
| --- | --- |
| > 10 | CNCCCN(C(=O)c1cc2ccccc2s1)c1ccccc1SCc1ccccc1 |
| 1 | CC(C(=O)N(CCCN(C)C)c1ccccc1SCc1ccccc1)c1ccccc1 (stereo not drawn) |
| > 10 | CN(C)CCN(C(=O)c1cc2ccccc2s1)c1ccccc1SCc1ccccc1 |
| > 10 | CN(C)CCCN(C(=O)c1cc2ccccc2s1)c1ccccc1Cc1ccccc1 |
| > 10 | CN(C)CCCCN(C(=O)c1cc2ccccc2s1)c1ccccc1SCc1ccccc1 |
| > 10 | CN(C)CCCN(C(=O)c1cc2ccccc2s1)c1ccccc1-c1ccccc1 |
| 2.2 | CCCCc1ccccc1N(CCCN(C)C)C(=O)c1cc2ccccc2s1 |

| SMILES | IC50 [µM] |
| --- | --- |
| CN(C)CCCN(C(=O)c1cc2ccccc2s1)c1ccccc1NC(=O)c1ccccc1 | > 10 |
| CN(C)CCCN(C(=O)c1cc2ccccc2o1)c1ccccc1SCc1ccccc1 | > 10 |
| CN(C)CCCN(C(=O)c1sc2ccccc2c1Cl)c1ccccc1SCc1ccccc1 | > 10 |
| CN(C)CCCN(C(=O)/C=C/c1ccccc1)c1ccccc1SCc1ccccc1 | 10 |
| CN(C)CCCN(C(=O)c1cc2ccccc2s1)c1ccccc1CCc1ccccc1 | > 10 |
| CN(C)CCCN(C(=O)[C@@H]1C[C@H]1c1ccccc1)c1ccccc1SCc1ccccc1 | 3.7 |
